# Results as given in patent US5004747A, “Isoquinolinones” (May & Baker Limited, priority 1988, dated 1991).
# Biological target: T1, rat hepatic microsomal HMG CoA reductase (Rattus norvegicus, UniProt P51639)
# T1 construct: rat hepatic microsomal HMG CoA reductase; from tissue; host or cells: rat liver microsomes
# T1 sequence (P51639 1-887): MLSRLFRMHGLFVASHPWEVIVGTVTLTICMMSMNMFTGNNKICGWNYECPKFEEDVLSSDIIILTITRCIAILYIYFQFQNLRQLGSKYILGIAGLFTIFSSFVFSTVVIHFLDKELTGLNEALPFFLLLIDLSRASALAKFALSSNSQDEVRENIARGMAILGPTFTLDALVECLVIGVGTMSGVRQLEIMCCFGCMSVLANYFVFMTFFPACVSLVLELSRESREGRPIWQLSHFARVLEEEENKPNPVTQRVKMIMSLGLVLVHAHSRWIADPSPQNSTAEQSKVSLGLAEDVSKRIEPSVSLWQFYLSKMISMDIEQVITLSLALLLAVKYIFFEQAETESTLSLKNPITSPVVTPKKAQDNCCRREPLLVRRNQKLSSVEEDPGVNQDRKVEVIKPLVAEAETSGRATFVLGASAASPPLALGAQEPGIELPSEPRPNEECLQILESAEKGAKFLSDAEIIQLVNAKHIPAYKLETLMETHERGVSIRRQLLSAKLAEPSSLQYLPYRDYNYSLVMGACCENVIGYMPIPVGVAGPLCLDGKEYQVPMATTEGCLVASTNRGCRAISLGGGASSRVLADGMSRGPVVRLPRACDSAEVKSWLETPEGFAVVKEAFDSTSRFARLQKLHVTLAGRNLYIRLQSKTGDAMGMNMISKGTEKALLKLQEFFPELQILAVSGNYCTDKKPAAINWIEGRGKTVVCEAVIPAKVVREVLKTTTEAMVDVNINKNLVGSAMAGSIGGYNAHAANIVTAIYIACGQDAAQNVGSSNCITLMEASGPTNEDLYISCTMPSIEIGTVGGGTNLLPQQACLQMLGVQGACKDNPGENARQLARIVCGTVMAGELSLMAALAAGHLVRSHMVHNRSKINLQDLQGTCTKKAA
# Experiment: inhibition of rat hepatic microsomal HMG CoA reductase activity in vitro (Table I)
# Format: biochemical
# Details: for inhibition at 0.082 µg/mL: 0.082 micrograms/ml; for inhibition at 0.25 µg/mL: 0.25 micrograms/ml; for inhibition at 0.74 µg/mL: 0.74 micrograms/ml; for inhibition at 2.22 µg/mL: 2.22 micrograms/ml; for inhibition at 6.66 µg/mL: 6.66 micrograms/ml
# Excerpt: In the table the concentrations of the test compounds are expressed in micrograms/ml.
SMILES,inhibition at 0.082 µg/mL,inhibition at 0.25 µg/mL,inhibition at 0.74 µg/mL,inhibition at 2.22 µg/mL,inhibition at 6.66 µg/mL,inhibition at 20 µg/mL (20.0 micrograms/ml)
"O=C1C[C@H](O)C[C@@H](/C=C/c2c(-c3ccc(F)cc3)c3ccccc3c(=O)n2CC2CC2)O1 [X, (4R,6S)-(E)-6-(2-(2-cyclopropylmethyl-4-(4-fluorophenyl)-1-oxo-1,2-dihydroisoquinolin-3-yl)ethen-1-yl)-4-hydroxy-3,4,5,6-tetrahydro-2H-pyran-2-one]",16%,35%,61%,83%,92%,96%
"CC(C)c1c(/C=C/[C@@H]2C[C@@H](O)CC(=O)O2)n(C2CCCCC2)c(=O)c2ccccc12 [Z, (4R,6S)-(E)-6-(2-(2-cyclohexyl-4-isopropyl-1-oxo-1,2-dihydroisoquinolin-3-yl)ethen-1-yl)-4-hydroxy-3,4,5,6-tetrahydro-2H-pyran-2-one]",50%,77%,88%,96%,99%,
